Where two headings read alike, the source gives them in different places.
Assay: Single ascending dose study in healthy subjects, pharmacokinetics of compound of Formula I
Assay type: in vivo, human
Details: for concentration at 0.5 h / concentration at 1 h / concentration at 1.5 h / concentration at 2 h / concentration at 3 h / concentration at 4 h / concentration at 5 h / concentration at 6 h / concentration at 8 h / concentration at 12 h / concentration at 24 h / concentration at 48 h / Tmax / half-life / Cmax / CL renal / Vd/F: human, plasma; for concentration at 0.5 h / concentration at 1 h / concentration at 1.5 h / concentration at 2 h / concentration at 3 h / concentration at 4 h / concentration at 5 h / concentration at 6 h / concentration at 8 h / concentration at 12 h / concentration at 24 h / concentration at 48 h: mean; for Vd/F: read-out: Vz/F (apparent volume of distribution after oral administration)
Method: A Phase 1, single-center, subject- and investigator-blind, single-ascending dose, placebo-controlled, crossover, randomized study is performed to evaluate safety, tolerability, and pharmacokinetics (PK) of the compound of Formula I in healthy subjects. The study is conducted in 2 alternating cohorts (cohorts 1 and 2) in up to 3 study periods across 6 dose levels. Subjects are randomized to 1 of 3 treatment sequences in each cohort, with each sequence including 2 doses of compound of Formula I and 1 placebo dose over the 3 study periods in a complete crossover manner.
After an overnight fast of at least 8 hours, oral capsules are administered with approximately 240 mL of room-temperature water in the morning of each dosing day in a sitting position. Doses of 0.15 mg to 2 mg are administered as an oral solution of compound of Formula I via an oral dosing syringe with water similar to oral capsule dosing.
The capsules containing the compound of Formula I are prepared extemporaneously. Oral doses of 0.15 mg to 2 mg of the compound of Formula I are prepared extemporaneously as drug in solution. For any specific cohort/dosing period, the total number of capsules administered is the same for all subjects, regardless of whether assigned to placebo or the compound of Formula I. However, the number of capsules may vary between dosing periods and cohorts. This is similarly the case for extemporaneously prepared oral dosing solutions to maintain the blind. […] A matching volume of oral solution vehicle without compound of Formula I is used as placebo for the doses of 0.15 mg to 2 mg.
Venous blood samples of approximately 3 mL each are collected to determine the plasma concentrations of compound of Formula I. Concentrations of compound of Formula I are assayed using a validated liquid chromatography with tandem mass spectrometry method. PK parameter estimates for compound of Formula I are calculated using standard noncompartmental methods of analysis. Plasma concentrations of compound of Formula I are summarized by administered dose of compound of Formula I and the approximate time of PK blood sample collection. Following the procedure essentially as described above, PK data for a single ascending dose of the compound of Formula I in healthy subjects are set forth in Table 3 and Table 4.

[1] = single oral dose 0.6 mg, geometric mean (% CV)
[2] = single oral dose 2 mg, geometric mean (% CV)
[3] = single oral dose 5 mg, geometric mean (% CV)
[4] = single oral dose 10 mg, geometric mean (% CV)
[5] = single oral dose 16 mg, geometric mean (% CV)

## CC(=O)Nc1nc(F)c(CN2CC[C@H](OCc3noc(C)n3)C[C@@H]2C)s1 [compound of Formula I, N-[4-fluoro-5-[[(2S,4S)-2-methyl-4-[(5-methyl-1,2,4-oxadiazol-3-yl)methoxy]-1-piperidyl]methyl]thiazol-2-yl]acetamide]
0.6-mg to 16-mg dose range
  AUC(0-∞) dose proportionality: increase approximately dose-proportionally
  Cmax dose proportionality: increase approximately dose-proportionally
Single oral dose 0.15 mg
  concentration at 0.5 h: 0.271 ng/mL
  concentration at 1 h: 0.278 ng/mL
  concentration at 1.5 h: 0.246 ng/mL
  concentration at 2 h: 0.179 ng/mL
  concentration at 3 h: 0.161 ng/mL
Single oral dose 0.6 mg
  concentration at 0.5 h: 6.15 ng/mL
  concentration at 1 h: 6.25 ng/mL
  concentration at 1.5 h: 5.21 ng/mL
  concentration at 2 h: 4.84 ng/mL
  concentration at 3 h: 3.96 ng/mL
  concentration at 4 h: 3.6 ng/mL
  concentration at 5 h: 3.02 ng/mL
  concentration at 6 h: 2.35 ng/mL
  concentration at 8 h: 2.1 ng/mL
  concentration at 12 h: 1.09 ng/mL
  concentration at 24 h: 0.307 ng/mL
Single oral dose 2 mg
  concentration at 0.5 h: 16.2 ng/mL
  concentration at 1 h: 21.8 ng/mL
  concentration at 1.5 h: 19.5 ng/mL
  concentration at 2 h: 18.6 ng/mL
  concentration at 3 h: 15.3 ng/mL
  concentration at 4 h: 12.6 ng/mL
  concentration at 5 h: 10.5 ng/mL
  concentration at 6 h: 8.75 ng/mL
  concentration at 8 h: 7.09 ng/mL
  concentration at 12 h: 4.24 ng/mL
  concentration at 24 h: 1.34 ng/mL
Single oral dose 5 mg
  concentration at 0.5 h: 14.6 ng/mL
  concentration at 1 h: 58.9 ng/mL
  concentration at 1.5 h: 55.3 ng/mL
  concentration at 2 h: 50.3 ng/mL
  concentration at 3 h: 43.1 ng/mL
  concentration at 4 h: 36.5 ng/mL
  concentration at 5 h: 29.5 ng/mL
  concentration at 6 h: 24.8 ng/mL
  concentration at 8 h: 18.4 ng/mL
  concentration at 12 h: 9.74 ng/mL
  concentration at 24 h: 2.76 ng/mL
  concentration at 48 h: 0.634 ng/mL
Single oral dose 10 mg
  concentration at 0.5 h: 28.8 ng/mL
  concentration at 1 h: 122 ng/mL
  concentration at 1.5 h: 127 ng/mL
  concentration at 2 h: 125 ng/mL
  concentration at 3 h: 106 ng/mL
  concentration at 4 h: 100 ng/mL
  concentration at 5 h: 81.7 ng/mL
  concentration at 6 h: 72.3 ng/mL
  concentration at 8 h: 55.1 ng/mL
  concentration at 12 h: 32.7 ng/mL
  concentration at 24 h: 11 ng/mL
  concentration at 48 h: 2.28 ng/mL
Single oral dose 16 mg
  concentration at 0.5 h: 59.7 ng/mL
  concentration at 1 h: 150 ng/mL
  concentration at 1.5 h: 183 ng/mL
  concentration at 2 h: 187 ng/mL
  concentration at 3 h: 153 ng/mL
  concentration at 4 h: 127 ng/mL
  concentration at 5 h: 100 ng/mL
  concentration at 6 h: 88 ng/mL
  concentration at 8 h: 63 ng/mL
  concentration at 12 h: 32.2 ng/mL
  concentration at 24 h: 6.83 ng/mL
  concentration at 48 h: 0.828 ng/mL
oral, summary over the single ascending doses, read-out: median tmax
  Tmax: ~1 h
oral, summary over the single ascending doses, read-out: t1/2 (converted)
  half-life: ~6 h
Single oral dose 0.15 mg, geometric mean (% CV)
  Cmax: 0.318 ng/mL
Single oral dose 0.15 mg, median, read-out: tmax
  Tmax: 1.02 h
[1]
  Cmax: 6.61 ng/mL
  Vd/F: 120 L
  AUC(0-∞): 44.0 (33) ngxh/mL
  Ae0-24 (amount excreted in urine up to 24 hours postdose): 0.048 (53%) mg
  CL/F (apparent clearance calculated after oral administration): 13.6 (33) L/h
Single oral dose 0.6 mg, geometric mean (% CV), read-out: CLr (renal clearance) (converted)
  CL renal: 19.5 mL/min
Single oral dose 0.6 mg, geometric mean, read-out: t1/2 (terminal half-life) (converted)
  half-life: 6.08 h
Single oral dose 0.6 mg, median, read-out: tmax
  Tmax: 1 h
[2]
  Cmax: 20.9 ng/mL
  Vd/F: 119 L
  AUC(0-∞): 133 (88) ngxh/mL
  Ae0-24 (amount excreted in urine up to 24 hours postdose): 0.155 (57%) mg
  CL/F (apparent clearance calculated after oral administration): 15.1 (88) L/h
Single oral dose 2 mg, geometric mean (% CV), read-out: CLr (renal clearance) (converted)
  CL renal: 20.8 mL/min
Single oral dose 2 mg, geometric mean, read-out: t1/2 (terminal half-life) (converted)
  half-life: 5.48 h
Single oral dose 2 mg, median, read-out: tmax
  Tmax: 1.25 h
[3]
  Cmax: 59.1 ng/mL
  Vd/F: 114 L
  AUC(0-∞): 396 (39) ngxh/mL
  Ae0-24 (amount excreted in urine up to 24 hours postdose): 0.436 (57%) mg
  CL/F (apparent clearance calculated after oral administration): 12.6 (39) L/h
Single oral dose 5 mg, geometric mean (% CV), read-out: CLr (renal clearance) (converted)
  CL renal: 19.7 mL/min
Single oral dose 5 mg, geometric mean, read-out: t1/2 (terminal half-life) (converted)
  half-life: 6.23 h
Single oral dose 5 mg, median, read-out: tmax
  Tmax: 1.02 h
[4]
  Cmax: 134 ng/mL
  Vd/F: 104 L
  AUC(0-∞): 1220 (28) ngxh/mL
  Ae0-24 (amount excreted in urine up to 24 hours postdose): 1.3 (30%) mg
  CL/F (apparent clearance calculated after oral administration): 8.20 (28) L/h
Single oral dose 10 mg, geometric mean (% CV), read-out: CLr (renal clearance) (converted)
  CL renal: 20.3 mL/min
Single oral dose 10 mg, geometric mean, read-out: t1/2 (terminal half-life) (converted)
  half-life: 8.82 h
Single oral dose 10 mg, median, read-out: tmax
  Tmax: 1.5 h
[5]
  Cmax: 199 ng/mL
  Vd/F: 102 L
  AUC(0-∞): 1340 (19) ngxh/mL
  Ae0-24 (amount excreted in urine up to 24 hours postdose): 1.14 (36%) mg
  CL/F (apparent clearance calculated after oral administration): 11.9 (19) L/h
Single oral dose 16 mg, geometric mean (% CV), N = 3, read-out: CLr (renal clearance) (converted)
  CL renal: 16 mL/min
Single oral dose 16 mg, geometric mean, read-out: t1/2 (terminal half-life) (converted)
  half-life: 5.92 h
Single oral dose 16 mg, median, read-out: tmax
  Tmax: 1.98 h
Single oral dose 0.15 mg, geometric mean, N=5
  Ae0-24 (amount excreted in urine up to 24 hours postdose): 0.003 mg

Source: patent publication US20230338349A1, “LOW DOSE REGIMEN AND FORMULATION OF A 5-METHYL-1,2,4-OXADIAZOL-3-YL COMPOUND” (Eli Lilly and Company, priority 2020, published 2023)
